Experimental data reported in patent publication US20240174723A1, “STAPLED ANTIMICROBIAL PEPTIDES (STAMPS) AND USES THEREOF” (Lytica Therapeutics, Inc., priority 2021, published 2024).
≈ marks a conversion by molar mass, not a printed value. Positions of bridges follow the written chain, without caps; N, C: chain ends. Non-standard residues stand in square brackets, D forms with d. Residues, ends and D or L forms follow the SMILES beside them. S5 = C=CCCC[C@](C)(N)C(=O)O

Assays:
in vitro [1] = assay type: cell-based; conditions: human, Inhibitory Concentration at 50% Cytotoxicity (IC50) Human Liver Cells (HepG2)
Outline: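 HepG2 cells in EMEM with 10% FBS, allowed 4 h to attach, then exposed to serial dilutions of StAMPs (from a 5 mg/mL water stock) or vehicle. After 48 h at 37 °C, viability read by CellTiter-Glo luminescence.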

E. coli = assay type: cell-based, Escherichia coli
Outline: (§1)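 Broth microdilution adapted from CLSI in Mueller-Hinton broth or cation-adjusted MHB. Overnight 37 °C cultures were regrown 3-4 h, then added to serially diluted peptide at a final 5×10^5 CFU/ml. After 20-24 h at 37 °C, MIC was the lowest peptide concentration with no visible growth.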

in vitro [2] = assay type: cell-based; conditions: human
Outline: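 RPTEC or HepG2 cells plated overnight, given fresh media, then serial StAMP dilutions (from 5 mg/mL water stock) or vehicle at 37 °C. Cytotoxicity read as LDH release into media, absorbance 490 nm; renal toxicity after 90 min, liver toxicity after 48 h incubation.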

A. baumannii = assay type: cell-based, Acinetobacter baumannii
Outline: as §1

P. aeruginosa = assay type: cell-based, Pseudomonas aeruginosa
Outline: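 Broth microdilution adapted from CLSI in MHB or cation-adjusted MHB; log-phase P. aeruginosa at 5×10^5 CFU/ml final with serially diluted stapled peptides. Incubated 20-24 h at 37 °C; MIC is the lowest concentration without visible growth.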

S. aureus = assay type: cell-based, Staphylococcus aureus
Outline: as §1

K. pneumoniae = assay type: cell-based, Klebsiella pneumoniae
Outline: as §1

SMILES | Minimum Inhibitory Concentration (MIC) E. coli (E. coli) [µg/mL] | IC50 at 90 min (in vitro [2]) [µg/mL] | Minimum Inhibitory Concentration (MIC) A. baumannii (A. baumannii) [µg/mL] | Minimum Inhibitory Concentration (MIC) P. aeruginosa (P. aeruginosa) [µg/mL] | Minimum Inhibitory Concentration (MIC) S. aureus (S. aureus) [µg/mL] | Minimum Inhibitory Concentration (MIC) K. pneumoniae (K. pneumoniae) [µg/mL] | IC50 at 48 hours (in vitro [1]) [µg/mL]
CC(C)[C@@H]1NC(=O)[C@@](C)(NC(=O)[C@H](C)NC(=O)[C@H](CCCCN)NC(=O)CNC(=O)[C@H](Cc2ccccc2)NC(=O)[C@H](CCCCN)NC(=O)[C@H](CCCCN)NC(=O)[C@H](CCCCN)NC(=O)[C@H](CO)NC(=O)[C@H](Cc2c[nH]cn2)NC(=O)[C@]2(C)CCCC=CCCC[C@](C)(NC(=O)CN)C(=O)NCC(=O)N[C@@H](Cc3c[nH]c4ccccc34)C(=O)N[C@@H](Cc3ccccc3)C(=O)N2)CCCC=CCCC[C@@](C)(C(=O)N[C@@H](C)C(=O)N[C@@H](CCCCN)C(=O)N[C@@H](CCCCN)C(N)=O)NC(=O)[C@H](CCC(=O)O)NC(=O)CNC1=O [compound 58] (H-G[S5]GWF[S5]HSKKKFGKA[S5]VGE[S5]AKK-NH2; staple 2-6, 16-20) | 16 | > 200 | 8 | 32 | >64 | >64 | > 200
CC(C)[C@@H]1NC(=O)[C@@](C)(NC(=O)[C@H](C)NC(=O)[C@H](CCCCN)NC(=O)[C@H](Cc2c[nH]c3ccccc23)NC(=O)[C@H](Cc2ccccc2)NC(=O)[C@H](CCCCN)NC(=O)[C@H](CCCCN)NC(=O)[C@H](CCCCN)NC(=O)[C@H](CO)NC(=O)[C@H](Cc2c[nH]cn2)NC(=O)[C@]2(C)CCCC=CCCC[C@](C)(NC(=O)CN)C(=O)NCC(=O)N[C@@H](CCCCN)C(=O)N[C@@H](Cc3ccccc3)C(=O)N2)CCCC=CCCC[C@@](C)(C(=O)N[C@@H](C)C(=O)N[C@@H](CCCCN)C(=O)N[C@@H](CCCCN)C(N)=O)NC(=O)[C@H](CCC(=O)O)NC(=O)CNC1=O [compound 69] (H-G[S5]GKF[S5]HSKKKFWKA[S5]VGE[S5]AKK-NH2; staple 2-6, 16-20) | 4 | 24 (≈ 9.02 µM) | 4 | 8 | 32 | 8 | 23 (≈ 8.64 µM)
CC(C)[C@@H]1NC(=O)[C@@](C)(NC(=O)[C@H](C)NC(=O)[C@H](CCCCN)NC(=O)CNC(=O)[C@H](Cc2ccccc2)NC(=O)[C@H](CCCCN)NC(=O)[C@H](CCCCN)NC(=O)[C@H](CCCCN)NC(=O)[C@H](CO)NC(=O)[C@H](Cc2c[nH]cn2)NC(=O)[C@]2(C)CCCC=CCCC[C@](C)(NC(=O)CN)C(=O)NCC(=O)N[C@@H](CCCCN)C(=O)N[C@@H](Cc3ccccc3)C(=O)N2)CCCC=CCCC[C@@](C)(C(=O)N[C@@H](C)C(=O)N[C@@H](CCCCN)C(=O)N[C@@H](CCCCN)C(N)=O)NC(=O)[C@H](CCC(=O)O)NC(=O)[C@H](Cc2c[nH]c3ccccc23)NC1=O (single isomer, unassigned) [compound 10] | 4 | 110 (≈ 41.3 µM) | 2 | 4 | 32 | 4 | 150 (≈ 56.4 µM)
CC(C)[C@@H]1NC(=O)[C@@](C)(NC(=O)[C@H](C)NC(=O)[C@H](CCCCN)NC(=O)CNC(=O)[C@H](Cc2ccccc2)NC(=O)[C@H](CCCCN)NC(=O)[C@H](CCCCN)NC(=O)[C@H](CCCCN)NC(=O)[C@H](CO)NC(=O)[C@H](Cc2c[nH]cn2)NC(=O)[C@]2(C)CCCC=CCCC[C@](C)(NC(=O)CN)C(=O)N[C@@H](Cc3c[nH]c4ccccc34)C(=O)N[C@@H](CCCCN)C(=O)N[C@@H](Cc3ccccc3)C(=O)N2)CCCC=CCCC[C@@](C)(C(=O)N[C@@H](C)C(=O)N[C@@H](CCCCN)C(=O)N[C@@H](CCCCN)C(N)=O)NC(=O)[C@H](CCC(=O)O)NC(=O)CNC1=O [compound 57] (H-G[S5]WKF[S5]HSKKKFGKA[S5]VGE[S5]AKK-NH2; staple 2-6, 16-20) | 4 | 35 (≈ 13.2 µM) | 4 | 8 | 32 | 16 | 70 (≈ 26.3 µM)

Further lines, with some results ahead:

Minimum Inhibitory Concentration (MIC) E. coli (E. coli) [µg/mL] | IC50 at 90 min (in vitro [2]) [µg/mL] | Minimum Inhibitory Concentration (MIC) A. baumannii (A. baumannii) [µg/mL] | Minimum Inhibitory Concentration (MIC) P. aeruginosa (P. aeruginosa) [µg/mL] | Minimum Inhibitory Concentration (MIC) S. aureus (S. aureus) [µg/mL] | Minimum Inhibitory Concentration (MIC) K. pneumoniae (K. pneumoniae) [µg/mL] | SMILES | IC50 at 48 hours (in vitro [1]) [µg/mL]
4 | 100 (≈ 42.3 µM) | 4 | 4 | >64 | 4 | CC(C)[C@@H]1NC(=O)[C@@](C)(NC(=O)[C@H](C)NC(=O)[C@H](CCCCN)NC(=O)CNC(=O)[C@H](Cc2ccccc2)NC(=O)[C@H](CCCCN)NC(=O)[C@H](CCCCN)NC(=O)[C@H](CCCCN)NC(=O)[C@H](CCCCN)NC(=O)[C@H](CCCCN)NC(=O)[C@]2(C)CCCC=CCCC[C@](C)(NC(=O)CN)C(=O)NCC(=O)N[C@@H](CCCCN)C(=O)N[C@@H](Cc3ccccc3)C(=O)N2)CCCC=CCCC[C@@](C)(C(=O)N[C@@H](CCCCN)C(N)=O)NC(=O)[C@H](CCC(=O)O)NC(=O)CNC1=O [compound 27] (H-G[S5]GKF[S5]KKKKKFGKA[S5]VGE[S5]K-NH2; staple 2-6, 16-20) | 117 (≈ 49.5 µM)
2 | ~200 (≈ 77.3 µM) | 2 | 4 | >64 | 4 | CC(C)C[C@@H]1NC(=O)[C@H](C(C)C)NC(=O)[C@@](C)(NC(=O)[C@H](C)NC(=O)[C@H](CCCCN)NC(=O)CNC(=O)[C@H](Cc2ccccc2)NC(=O)[C@H](CCCCN)NC(=O)[C@H](CCCCN)NC(=O)[C@H](CCCCN)NC(=O)[C@H](CO)NC(=O)[C@H](Cc2c[nH]cn2)NC(=O)[C@]2(C)CCCC=CCCC[C@](C)(NC(=O)CN)C(=O)NCC(=O)N[C@@H](CCCCN)C(=O)N[C@@H](Cc3ccccc3)C(=O)N2)CCCC=CCCC[C@@](C)(C(=O)N[C@@H](C)C(=O)N[C@@H](CCCCN)C(=O)N[C@@H](CCCCN)C(N)=O)NC(=O)[C@H](CCC(=O)O)NC1=O [compound 12] (H-G[S5]GKF[S5]HSKKKFGKA[S5]VLE[S5]AKK-NH2; staple 2-6, 16-20) | ~200 (≈ 77.3 µM)
8 | 78 (≈ 29.3 µM) | 4 | 16 | >64 | >64 | CC(C)[C@@H]1NC(=O)[C@@](C)(NC(=O)[C@H](C)NC(=O)[C@H](CCCCN)NC(=O)CNC(=O)[C@H](Cc2ccccc2)NC(=O)[C@H](CCCCN)NC(=O)[C@H](CCCCN)NC(=O)[C@H](CCCCN)NC(=O)[C@H](CO)NC(=O)[C@H](Cc2c[nH]cn2)NC(=O)[C@]2(C)CCCC=CCCC[C@](C)(NC(=O)[C@@H](N)Cc3c[nH]c4ccccc34)C(=O)NCC(=O)N[C@@H](CCCCN)C(=O)N[C@@H](Cc3ccccc3)C(=O)N2)CCCC=CCCC[C@@](C)(C(=O)N[C@@H](C)C(=O)N[C@@H](CCCCN)C(=O)N[C@@H](CCCCN)C(N)=O)NC(=O)[C@H](CCC(=O)O)NC(=O)CNC1=O [compound 56] (H-W[S5]GKF[S5]HSKKKFGKA[S5]VGE[S5]AKK-NH2; staple 2-6, 16-20) | 200 (≈ 75.2 µM)
